Where a name gives a salt, the structure may show the parent alone. Read-outs that look alike come from different tables or passages of the source.
Columns and labels:
[1] = tested on: Pasteurella multocida strains; test: MIC by broth microdilution (CLSI); type: cell-based; conditions: drug alone, against three strains (D18, T5, and WJ11)
Procedure: The susceptibility of the selected P. multocida isolates and the quality control isolate (ATCC 25922) to colistin, gamithromycin, cefquinome, enrofloxacin, tilmicosin, tylosin tartrate, and florfenicol alone was determined using the microdilution method in broth (conducted in triplicate) according to the guiding principles of the CLSI. Based on the action mechanism of each drug, the antimicrobial activity of colistin or cefquinome (drug A) in combination with gamithromycin, enrofloxacin, tilmicosin, tylosin tartrate, or florfenicol (drug B) was determined with the checkerboard method, according to the minimal inhibitory concentration (MIC) of each drug. Briefly, 50 μL of MH II broth was added to each well, and 50 μL of the indicated concentration of colistin or cefquinome was added into the first well of each line. This was followed by multiproportion dilution. Next, 50-μL samples of different concentrations of gamithromycin or the other drugs mentioned above were added to the dilution medium, and a 100 μL inoculum with a cell density of ∼1 × 10^6 colony-forming units (CFU)/mL was added to each well. The plates were then incubated at 37°C for 24 h. According to the EUCAST definitive document E.Def 1.2 ([Mccullough, 2010]), the fractional inhibitory concentration (FIC) index for combined administrations was defined as the sum of the FIC of drug A and the FIC of drug B, where FIC is the MIC of the drug combined with other drugs, divided by the MIC of the drug alone.

P. multocida = tested on: P. multocida; design: method as in Benoit et al., 2011; conditions: P. multocida with erm(E); ref Benoit et al., 2011; cited from earlier work
Description: Bovine respiratory disease (BRD) associated with Mannheimia haemolytica, P. multocida, and Histophilus somni is one of the most economically important diseases that occur in feedlots, and the global losses are estimated at over $3 billion per year ([Watts and Sweeney, 2010]).

[2] = Pasteurella multocida, read-out: MIC

Row | Compound | MIC [1] | MIC [1, 2] [µg/mL] | MIC (P. multocida) [µg/mL]
1 | CCN1CCN(c2cc3c(cc2F)c(=O)c(C(=O)O)cn3C2CC2)CC1 [enrofloxacin, Enrofloxacin] | – | > 64 | –
2 | CS(=O)(=O)c1ccc([C@@H](O)[C@@H](CF)NC(=O)C(Cl)Cl)cc1 [florfenicol] | – | 2 to 4 | –
3 | CCCNC[C@]1(O)[C@H](C)O[C@@H](O[C@H]2[C@H](C)[C@@H](O[C@@H]3O[C@H](C)C[C@H](N(C)C)[C@H]3O)[C@](C)(O)C[C@@H](C)CN[C@H](C)[C@@H](O)[C@](C)(O)[C@@H](CC)OC(=O)[C@@H]2C)C[C@@]1(C)OC [tulathromycin] | – | – | ≥ 512

More lines, main results first:

Row | MIC [1] | MIC [1, 2] [µg/mL] | Compound | MIC (P. multocida) [µg/mL]
4 | more than 64 mg/L | – | CO/N=C(\C(=O)N[C@@H]1C(=O)N2C(C(=O)[O-])=C(C[n+]3cccc4c3CCCC4)CS[C@H]12)c1csc(N)n1 [cefquinome, Cefquinome] | –
5 | – | 2 to 4 | CC[C@H]1OC(=O)C[C@@H](O)[C@H](C)[C@@H](O[C@@H]2O[C@H](C)[C@@H](O)[C@H](N(C)C)[C@H]2O)[C@@H](CCN2C[C@H](C)C[C@H](C)C2)C[C@@H](C)C(=O)/C=C/C(C)=C/[C@@H]1CO[C@@H]1O[C@H](C)[C@@H](O)[C@@H](OC)[C@H]1OC [tilmicosin] | ≥ 512
6 | – | > 64 | CC[C@H]1OC(=O)C[C@@H](O)[C@H](C)[C@@H](O[C@@H]2O[C@H](C)[C@@H](O[C@H]3C[C@@](C)(O)[C@@H](O)[C@H](C)O3)[C@H](N(C)C)[C@H]2O)[C@@H](CC=O)C[C@@H](C)C(=O)/C=C/C(C)=C/[C@@H]1CO[C@@H]1O[C@H](C)[C@@H](O)[C@@H](OC)[C@H]1OC [tylosin, tylosin tartrate] | ≥ 512

Source: article PMC7536268, “Increased Antimicrobial Activity of Colistin in Combination With Gamithromycin Against Pasteurella multocida in a Neutropenic Murine Lung Infection Model” (Frontiers in Microbiology, 2020)
